From patent publication US6387947B1, “Antimicrobial cosmetic compositions” (E-L Management Corp., priority 1997, dated 2002)
Entries after “also recorded” stand apart in the source; their conditions may differ.

Legend:
Enterics [1] = test: microbial challenge of nonionic oil-in-water emulsion, pool 1; format: cell-based; conditions: for concentration of microbes: 0.473% in emulsion
Description: (§1) A nonionic oil-in-water emulsion is prepared containing 0.473% 3-furan carboxylic acid. The formulation is divided into five portions, each one getting an inoculation at day 0, and a reinoculation after three weeks, of one of the following microbial cultures: (1)Enterics; (2) Pseudomonas; (3)Staphylococcus; (4)Yeast; and (5)Mold. The concentration of microbes in each individual formulation is calculated on the day of the inoculation, and then again calculated on day 2, and at the end of one, two, three (pre-reinoculation) and four weeks, at a variety of pH values. These are also compared with formulations containing 2-furan carboxylic acid and an identical series of microbes, and an acid pH control emulsion without a furan carboxylic acid added. All numbers, other than those listed as “<10”, are log base 10; thus, for example, “6.6” is equivalent to the presence of […] bacteria. Entries of <10 indicate less than 10 colony forming units, the lowest level of detection.

Pseudomonas [2] = test: microbial challenge of nonionic oil-in-water emulsion, pool 2; format: cell-based; conditions: for concentration of microbes: 0.473% in emulsion
Description: as §1

Staphylococcus = test: microbial challenge of nonionic oil-in-water emulsion, pool 3; format: cell-based; conditions: for concentration of microbes: 0.473% in emulsion
Description: The formulation is divided into five portions, each one getting an inoculation at day 0, and a reinoculation after three weeks, of one of the following microbial cultures: (1)Enterics; (2) Pseudomonas; (3)Staphylococcus; (4)Yeast; and (5)Mold. The concentration of microbes in each individual formulation is calculated on the day of the inoculation, and then again calculated on day 2, and at the end of one, two, three (pre-reinoculation) and four weeks, at a variety of pH values. These are also compared with formulations containing 2-furan carboxylic acid and an identical series of microbes, and an acid pH control emulsion without a furan carboxylic acid added. All numbers, other than those listed as “<10”, are log base 10; thus, for example, “6.6” is equivalent to the presence of […] bacteria. Entries of <10 indicate less than 10 colony forming units, the lowest level of detection.

Yeast = test: microbial challenge of nonionic oil-in-water emulsion, pool 4; format: cell-based; conditions: for concentration of microbes: 0.473% in emulsion
Description: as §1

Mold = test: microbial challenge of nonionic oil-in-water emulsion, pool 5; format: cell-based; conditions: for concentration of microbes: 0.473% in emulsion
Description: as §1

[3] = antiirritant effect against Balsam of Peru on ventral forearms of volunteers; format: in vivo, human; conditions: 0.1% in hydroalcohol 1:1, applied twenty minutes before Balsam of Peru; Minolta Chromameter; seven volunteers
Description: Seven volunteers with a history of skin sensitivity to Balsam of Peru are chosen for the study.
The test compounds are applied to the ventral forearms of panelists. The material is allowed to absorb for twenty minutes and then Balsam of Peru, an irritant is applied on the test sites. Skin irritation is measured in terms of increase in skin redness. The degree of redness is measured with a Minolta Chromameter and compared with the controls, the positive control being skin treated with Balsam of Peru alone, and the negative control being a skin site treated with 10% cola solution(a known antiirritant), and challenged like the test products.

[4] = test system: PLA2 enzyme obtained from snake venom; conditions: assay concentrations 0.01, 0.1 and 1 mg/ml
Description: The enzyme reaction is accomplished in a cuvette containing […] of phosphate buffered saline. Fluorometric substrate NBD-C6-HPC is solubilized 1 mM in EtOH, and is diluted in the reaction mixture to yield a 10 μM final concentration. The assay is initiated with the addition of 0.001 units per μl of PLA2 enzyme obtained from snake venom. Enzyme activity is monitored either with or without the presence of potential inhibitors. […] Prior to enzyme addition, samples are measured fluorometrically at excitation 470 and emission 570 to determine background level of fluorescensce. Following enzyme addition, samples are monitored every 15 minutes over a 60 minute period.

[5] = test system: lymphocyte adhesion to endothelial cells; test: inhibition of lymphocyte adhesion to endothelial cells; format: cell-based, human
Description: Endothelial cells are grown to confluence and washed thoroughly with basal media prior to the experiment to remove all fetal calf serum. The test compounds are then added to the endothelial culture well and incubated for 2 hours. IL-1β is added to stimulated expression of adhesion molecules on the endothelial cells before lymphocytes are added. Lymphocytes are isolated from blood collected from adult human subjects and added to the endothelial culture wells. PHA is added to stimulate adhesion molecule expression in the lymphocytes and the cultures incubated overnight. After a brief washing procedure, cells are incubated with Rose Bengal, and the number of adherent cells assessed by measuring the absorbance at 570 nm.

Enterics [6] = test: microbial challenge of nonionic oil-in-water emulsion, pool 1; format: cell-based; conditions: 0.473% in emulsion
Pseudomonas [7] = test: microbial challenge of nonionic oil-in-water emulsion, pool 2; format: cell-based; conditions: 0.473% in emulsion

O=C(O)c1ccoc1 [3-furan carboxylic acid]
antimicrobial activity against Enterics, in words (Enterics [1]): capable of preventing growth | concentration of microbes (Enterics [1]; pH 3.0, Week 1): <10 colony forming units | concentration of microbes (Enterics [1]; pH 3.0, Week 2): <10 colony forming units | concentration of microbes (Enterics [1]; pH 3.0, Week 3): <10 colony forming units | concentration of microbes (Enterics [1]; pH 4.0, Day 0): 6.6 log base 10 | concentration of microbes (Enterics [1]; pH 4.0, Week 1): <10 colony forming units | concentration of microbes (Enterics [1]; pH 4.0, Week 2): <10 colony forming units | concentration of microbes (Enterics [1]; pH 5.0, Week 1): <10 colony forming units | concentration of microbes (Enterics [1]; pH 5.0, Week 3): <10 colony forming units | antimicrobial activity against Pseudomonas, in words (Pseudomonas [2]): capable of preventing growth | concentration of microbes (Pseudomonas [2]; pH 3.0, Week 3): <10 colony forming units | concentration of microbes (Pseudomonas [2]; pH 4.0, Week 1): <10 colony forming units | concentration of microbes (Pseudomonas [2]; pH 4.0, Week 2): <10 colony forming units | concentration of microbes (Pseudomonas [2]; pH 4.0, Week 3): <10 colony forming units | concentration of microbes (Pseudomonas [2]; pH 5.0, Week 1): <10 colony forming units | concentration of microbes (Pseudomonas [2]; pH 5.0, Week 2): <10 colony forming units | concentration of microbes (Pseudomonas [2]; pH 5.0, Week 4): <10 colony forming units | antimicrobial activity against Staphylococcus, in words (Staphylococcus): capable of preventing growth | concentration of microbes (Staphylococcus; pH 3.0, Day 0): 6.3 log base 10 | concentration of microbes (Staphylococcus; pH 3.0, Day 2): <10 colony forming units | concentration of microbes (Staphylococcus; pH 3.0, Week 1): <10 colony forming units | concentration of microbes (Staphylococcus; pH 3.0, Week 2): <10 colony forming units | concentration of microbes (Staphylococcus; pH 3.0, Week 3): <10 colony forming units | concentration of microbes (Staphylococcus; pH 3.0, Week 4): <10 colony forming units | concentration of microbes (Staphylococcus; pH 4.0, Day 0): 6.3 log base 10 | concentration of microbes (Staphylococcus; pH 4.0, Day 2): <10 colony forming units | concentration of microbes (Staphylococcus; pH 4.0, Week 1): <10 colony forming units | concentration of microbes (Staphylococcus; pH 4.0, Week 2): <10 colony forming units | concentration of microbes (Staphylococcus; pH 4.0, Week 3): <10 colony forming units | concentration of microbes (Staphylococcus; pH 4.0, Week 4): <10 colony forming units | concentration of microbes (Staphylococcus; pH 5.0, Day 0): 6.3 log base 10 | concentration of microbes (Staphylococcus; pH 5.0, Day 2): <10 colony forming units | concentration of microbes (Staphylococcus; pH 5.0, Week 1): <10 colony forming units | concentration of microbes (Staphylococcus; pH 5.0, Week 2): <10 colony forming units | concentration of microbes (Staphylococcus; pH 5.0, Week 3): <10 colony forming units | concentration of microbes (Staphylococcus; pH 5.0, Week 4): <10 colony forming units | antimicrobial activity against yeast, in words (Yeast): substantially reducing the growth; also recorded: superior to 2-furan carboxylic acid | concentration of microbes (Yeast; pH 3.0, Day 0): 5.7 log base 10 | concentration of microbes (Yeast; pH 3.0, Day 2): <10 colony forming units | concentration of microbes (Yeast; pH 3.0, Week 1): <10 colony forming units | concentration of microbes (Yeast; pH 3.0, Week 2): <10 colony forming units | concentration of microbes (Yeast; pH 3.0, Week 3): <10 colony forming units | concentration of microbes (Yeast; pH 3.0, Week 4): <10 colony forming units | concentration of microbes (Yeast; pH 4.0, Day 0): 5.7 log base 10 | concentration of microbes (Yeast; pH 4.0, Day 2): 2.5 log base 10 | concentration of microbes (Yeast; pH 4.0, Week 1): <10 colony forming units | concentration of microbes (Yeast; pH 4.0, Week 2): <10 colony forming units | concentration of microbes (Yeast; pH 4.0, Week 3): <10 colony forming units | concentration of microbes (Yeast; pH 4.0, Week 4): <10 colony forming units | concentration of microbes (Yeast; pH 5.0, Day 0): 5.7 log base 10 | concentration of microbes (Yeast; pH 5.0, Day 2): 2.5 log base 10 | concentration of microbes (Yeast; pH 5.0, Week 1): 2.7 log base 10 | concentration of microbes (Yeast; pH 5.0, Week 2): 1.7 log base 10 | concentration of microbes (Yeast; pH 5.0, Week 3): 2.0 log base 10 | concentration of microbes (Yeast; pH 5.0, Week 4): 1.8 log base 10 | antimicrobial activity against Mold, in words (Mold): capable of preventing growth; also recorded: superior to 2-furan carboxylic acid | concentration of microbes (Mold; pH 3.0, Day 0): 5.2 log base 10 | concentration of microbes (Mold; pH 3.0, Day 2): <10 colony forming units | concentration of microbes (Mold; pH 3.0, Week 1): <10 colony forming units | concentration of microbes (Mold; pH 3.0, Week 2): <10 colony forming units | concentration of microbes (Mold; pH 3.0, Week 3): <10 colony forming units | concentration of microbes (Mold; pH 3.0, Week 4): <10 colony forming units | concentration of microbes (Mold; pH 4.0, Day 0): 5.2 log base 10 | concentration of microbes (Mold; pH 4.0, Day 2): <10 colony forming units | concentration of microbes (Mold; pH 4.0, Week 1): <10 colony forming units | concentration of microbes (Mold; pH 4.0, Week 2): <10 colony forming units | concentration of microbes (Mold; pH 4.0, Week 3): <10 colony forming units | concentration of microbes (Mold; pH 4.0, Week 4): <10 colony forming units | concentration of microbes (Mold; pH 5.0, Day 0): 5.2 log base 10 | concentration of microbes (Mold; pH 5.0, Day 2): <10 colony forming units | concentration of microbes (Mold; pH 5.0, Week 1): <10 colony forming units | concentration of microbes (Mold; pH 5.0, Week 2): <10 colony forming units | concentration of microbes (Mold; pH 5.0, Week 3): <10 colony forming units | concentration of microbes (Mold; pH 5.0, Week 4): <10 colony forming units | effectiveness in preventing the onset of irritation (reduction of skin redness) [3]: 48% | PLA2 inhibition, in words [4]: exceptionally active | inhibition of adhesion of polymorphonuclear leukocytes (PMNs) to activated endothelial cells, in words [5]: ability to inhibit the adhesion | inhibition of lymphocyte adhesion, in words (absorbance at 570 nm, Rose Bengal) ([5]; concentrations of 0.5% and 1%, IL-1β and PHA stimulated): very potent inhibitors of lymphocyte adhesion | concentration of microbes (Enterics [6]; pH 3.0, Day 0): 6.6 log base 10 | concentration of microbes (Enterics [6]; pH 3.0, Day 2): <10 colony forming units | concentration of microbes (Enterics [6]; pH 3.0, Week 4): <10 colony forming units | concentration of microbes (Enterics [6]; pH 4.0, Day 2): <10 colony forming units | concentration of microbes (Enterics [6]; pH 4.0, Week 3): <10 colony forming units | concentration of microbes (Enterics [6]; pH 4.0, Week 4): <10 colony forming units | concentration of microbes (Enterics [6]; pH 5.0, Day 0): 6.6 log base 10 | concentration of microbes (Enterics [6]; pH 5.0, Day 2): <10 colony forming units | concentration of microbes (Enterics [6]; pH 5.0, Week 2): <10 colony forming units | concentration of microbes (Enterics [6]; pH 5.0, Week 4): <10 colony forming units | concentration of microbes (Pseudomonas [7]; pH 3.0, Day 2): <10 colony forming units | concentration of microbes (Pseudomonas [7]; pH 3.0, Week 1): <10 colony forming units | concentration of microbes (Pseudomonas [7]; pH 3.0, Week 2): <10 colony forming units | concentration of microbes (Pseudomonas [7]; pH 3.0, Week 4): <10 colony forming units | concentration of microbes (Pseudomonas [7]; pH 4.0, Day 2): <10 colony forming units | concentration of microbes (Pseudomonas [7]; pH 4.0, Week 4): <10 colony forming units | concentration of microbes (Pseudomonas [7]; pH 5.0, Day 2): <10 colony forming units | concentration of microbes (Pseudomonas [7]; pH 5.0, Week 3): <10 colony forming units

COc1cc(/C=C/C(=O)O)ccc1O [Ferulic acid, ferulic acid]
effectiveness in preventing the onset of irritation (reduction of skin redness) [3]: 72%
